Patent publication US11447505B1, “Pyrrolo[2,3-b]pyridine compounds and their use in the treatment of cancer” (priority 2017, dated 2022)

Columns and labels:
MRCKβ = MRCKβ (Homo sapiens (Human), UniProt Q9Y5S2); experiment: MRCKβ kinase assay (IMAP fluorescence polarization); format: biochemical; conditions: 1 μM ATP; read-out: MRCK-B Average Ki
Excerpt: MRCKα, MRCKβ, ROCK1 and ROCK2 Kinase Assays

ROCK1 = ROCK1 (Homo sapiens (Human), UniProt Q13464); conditions: read-out: ROCK1 Average Ki; 1 μM ATP
ROCK1, sequence (Q13464 2-1354 limits assumed): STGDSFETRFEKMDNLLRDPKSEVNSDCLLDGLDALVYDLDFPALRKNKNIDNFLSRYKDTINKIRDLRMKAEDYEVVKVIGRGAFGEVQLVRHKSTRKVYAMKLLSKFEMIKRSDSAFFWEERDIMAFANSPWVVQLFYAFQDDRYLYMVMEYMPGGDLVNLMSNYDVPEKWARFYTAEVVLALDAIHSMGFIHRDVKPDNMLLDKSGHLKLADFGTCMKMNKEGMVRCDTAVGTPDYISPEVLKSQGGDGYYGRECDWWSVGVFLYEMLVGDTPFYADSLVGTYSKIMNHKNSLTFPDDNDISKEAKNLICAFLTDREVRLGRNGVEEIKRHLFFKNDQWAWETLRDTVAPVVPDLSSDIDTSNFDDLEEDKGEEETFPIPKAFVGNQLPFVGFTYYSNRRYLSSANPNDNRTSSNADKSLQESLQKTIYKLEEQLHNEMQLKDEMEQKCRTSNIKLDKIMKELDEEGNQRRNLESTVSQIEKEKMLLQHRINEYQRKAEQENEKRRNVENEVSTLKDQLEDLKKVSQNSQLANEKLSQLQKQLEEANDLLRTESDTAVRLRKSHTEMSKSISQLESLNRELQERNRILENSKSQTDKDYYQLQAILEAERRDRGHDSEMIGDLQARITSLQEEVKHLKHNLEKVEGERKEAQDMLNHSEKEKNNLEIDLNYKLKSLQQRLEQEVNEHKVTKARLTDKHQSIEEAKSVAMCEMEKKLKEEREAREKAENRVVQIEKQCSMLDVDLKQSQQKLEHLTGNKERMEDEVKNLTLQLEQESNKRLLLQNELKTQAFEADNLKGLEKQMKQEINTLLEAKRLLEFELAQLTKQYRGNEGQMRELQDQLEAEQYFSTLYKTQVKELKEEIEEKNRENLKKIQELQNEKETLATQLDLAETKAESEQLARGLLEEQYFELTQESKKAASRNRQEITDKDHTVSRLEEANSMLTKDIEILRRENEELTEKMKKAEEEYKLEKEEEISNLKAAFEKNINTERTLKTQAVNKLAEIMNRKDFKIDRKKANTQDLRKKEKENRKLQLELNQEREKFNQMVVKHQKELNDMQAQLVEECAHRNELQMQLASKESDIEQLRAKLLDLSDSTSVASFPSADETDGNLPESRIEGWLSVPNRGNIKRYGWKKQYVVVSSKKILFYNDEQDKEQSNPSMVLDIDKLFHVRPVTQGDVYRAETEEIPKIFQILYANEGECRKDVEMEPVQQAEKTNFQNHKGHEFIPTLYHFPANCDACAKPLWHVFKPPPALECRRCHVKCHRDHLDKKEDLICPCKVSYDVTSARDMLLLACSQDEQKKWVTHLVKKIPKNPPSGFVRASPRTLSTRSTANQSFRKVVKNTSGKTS
Procedure: MRCKα, MRCKβ, ROCK1 and ROCK2 assays were performed using an IMAP fluorescence polarization assay format (Molecular Devices Inc.). […] Typically, dose response analyses were performed over concentration ranges from 0.005-100 μM. […] After 30 min incubation to allow binding reagent to bind phosphorylated peptide, fluorescence polarization was measured on a Tecan Saphire^2 plate reader at excitation (470 nm) and emission (530 nm) wavelengths.

Compound	Ki (MRCKβ)	Ki (ROCK1)
7-(3-pyridazin-4-yl-1H-pyrrolo[2,3-b]pyridin-4-yl)-2,7-diazaspiro[4.5]decane [Example E163]	2.4 nM	16.7 nM
NC1CN(c2ccnc3[nH]cc(-c4ccncn4)c23)CCC1F (stereo not drawn) [Example E42, 4-fluoro-1-(3-pyrimidin-4-yl-1H-pyrrolo[2,3-b]pyridin-4-yl)piperidin-3-amine]	0.323 nM	79.6 nM
c1cc(-c2c[nH]c3nccc(N4CCCNCC4)c23)cnn1 [Example E43, 4-(1,4-diazepan-1-yl)-3-pyridazin-4-yl-1H-pyrrolo[2,3-b]pyridine]	2.61 nM	59.5 nM
c1ncc(-c2c[nH]c3nccc(N4CCCNCC4)c23)cn1 [Example E44, 4-(1,4-diazepan-1-yl)-3-pyrimidin-5-yl-1H-pyrrolo[2,3-b]pyridine]	4.5 nM	461 nM
N#Cc1c[nH]c2nccc(N3CCCCC3Cc3ccccc3)c12 (stereo not drawn) [Example E106, 4-(2-benzyl-1-piperidyl)-1H-pyrrolo[2,3-b]pyridine-3-carbonitrile]	805 nM	–
c1ncc(-c2c[nH]c3nccc(N4CC[C@]5(CCCN5)C4)c23)cn1 [Example E123, 4-[(5R)-1,7-diazaspiro[4.4]nonan-7-yl]-3-pyrimidin-5-yl-1H-pyrrolo[2,3-b]pyridine]	9.88 nM	100000 nM
c1ncc(-c2c[nH]c3nccc(N4CC[C@@]5(CCCN5)C4)c23)cn1 [Example E124, 4-[(5S)-1,7-diazaspiro[4.4]nonan-7-yl]-3-pyrimidin-5-yl-1H-pyrrolo[2,3-b]pyridine]	0.947 nM	76.9 nM
c1ncc(-c2c[nH]c3nccc(N4CC[C@]5(CCCCN5)C4)c23)cn1 [Example E125, (5R)-2-(3-pyrimidin-5-yl-1H-pyrrolo[2,3-b]pyridin-4-yl)-2,6-diazaspiro[4.5]decane]	31.3 nM	424 nM
c1cc(-c2c[nH]c3nccc(N4CC[C@]5(CCCCN5)C4)c23)ncn1 [Example E127, (5R)-2-(3-pyrimidin-4-yl-1H-pyrrolo[2,3-b]pyridin-4-yl)-2,6-diazaspiro[4.5]decane]	11.6 nM	175 nM
Cc1cnc(-c2c[nH]c3nccc(N4CC[C@]5(CCCCN5)C4)c23)s1 [Example E130, 2-[4-[(5R)-2,6-diazaspiro[4.5]decan-2-yl]-1H-pyrrolo[2,3-b]pyridin-3-yl]-5-methyl-thiazole]	7.23 nM	100000 nM
c1csc(-c2c[nH]c3nccc(N4CC[C@]5(CCCCN5)C4)c23)n1 [Example E132, 2-[4-[(5R)-2,6-diazaspiro[4.5]decan-2-yl]-1H-pyrrolo[2,3-b]pyridin-3-yl]thiazole]	4.11 nM	100000 nM
c1csc(-c2c[nH]c3nccc(N4CC[C@]5(CCCN5)C4)c23)n1 [Example E135, 2-[4-[(5R)-1,7-diazaspiro[4.4]nonan-7-yl]-1H-pyrrolo[2,3-b]pyridin-3-yl]thiazole]	10.3 nM	100000 nM
c1ccc(-c2c[nH]c3nccc(N4CCC5(CCCN5)C4)c23)nc1 (stereo not drawn) [Example E137, 4-(1,7-diazaspiro[4.4]nonan-7-yl)-3-(2-pyridyl)-1H-pyrrolo[2,3-b]pyridine]	2.83 nM	100000 nM
c1ccc(-c2c[nH]c3nccc(N4CCCC5(CCCCN5)C4)c23)nc1 (stereo not drawn) [Example E138, 8-[3-(2-pyridyl)-1H-pyrrolo[2,3-b]pyridin-4-yl]-1,8-diazaspiro[5.5]undecane]	0.0726 nM	319 nM
c1ccc(-c2c[nH]c3nccc(N4CCC[C@]5(CCCCN5)C4)c23)nc1 [Example E140, (6R)-8-[3-(2-pyridyl)-1H-pyrrolo[2,3-b]pyridin-4-yl]-1,8-diazaspiro[5.5]undecane]	7.33 nM	97.7 nM
c1ccc(-c2c[nH]c3nccc(N4CCC5(CCCCN5)C4)c23)nc1 (stereo not drawn) [Example E141, 2-[3-(2-pyridyl)-1H-pyrrolo[2,3-b]pyridin-4-yl]-2,6-diazaspiro[4.5]decane]	0.549 nM	109 nM
Cc1cnc(-c2c[nH]c3nccc(N4CCCC5(CCCN5)C4)c23)s1 (stereo not drawn) [Example E143, 2-[4-(1,9-diazaspiro[4.5]decan-9-yl)-1H-pyrrolo[2,3-b]pyridin-3-yl]-5-methyl-thiazole]	0.882 nM	100000 nM
Cc1cnc(-c2c[nH]c3nccc(N4CCC5(CCCCN5)C4)c23)s1 (stereo not drawn) [Example E144, 2-[4-(2,6-diazaspiro[4.5]decan-2-yl)-1H-pyrrolo[2,3-b]pyridin-3-yl]-5-methyl-thiazole]	0.154 nM	386 nM
Cc1cnc(-c2c[nH]c3nccc(N4CCCC5(CCCCN5)C4)c23)s1 (stereo not drawn) [Example E147, 2-[4-(1,8-diazaspiro[5.5]undecan-8-yl)-1H-pyrrolo[2,3-b]pyridin-3-yl]-5-methyl-thiazole]	0.0924 nM	100000 nM
Cc1cnc(-c2c[nH]c3nccc(N4CCC[C@]5(CCCCN5)C4)c23)s1 [Example E148, 2-[4-[(6R)-1,8-diazaspiro[5.5]undecan-8-yl]-1H-pyrrolo[2,3-b]pyridin-3-yl]-5-methyl-thiazole]	4.02 nM	100000 nM
c1csc(-c2c[nH]c3nccc(N4CCCC5(CCCCN5)C4)c23)n1 (stereo not drawn) [Example E149, 2-[4-(1,8-diazaspiro[5.5]undecan-8-yl)-1H-pyrrolo[2,3-b]pyridin-3-yl]thiazole]	0.0633 nM	304 nM
c1csc(-c2c[nH]c3nccc(N4CCC[C@]5(CCCCN5)C4)c23)n1 [Example E151, 2-[4-[(6R)-1,8-diazaspiro[5.5]undecan-8-yl]-1H-pyrrolo[2,3-b]pyridin-3-yl]thiazole]	3.21 nM	114 nM
Cc1cnc(-c2c[nH]c3nccc(N4CCC5(CCN5)C4)c23)s1 (stereo not drawn) [Example E152, 2-[4-(1,7-diazaspiro[3.4]octan-7-yl)-1H-pyrrolo[2,3-b]pyridin-3-yl]-5-methyl-thiazole]	4.65 nM	100000 nM
Cc1cnc(-c2c[nH]c3nccc(N4CCCC5(CCN5)C4)c23)s1 (stereo not drawn) [Example E153, 2-[4-(1,8-diazaspiro[3.5]nonan-8-yl)-1H-pyrrolo[2,3-b]pyridin-3-yl]-5-methyl-thiazole]	9.36 nM	100000 nM
c1csc(-c2c[nH]c3nccc(N4CCC5(CCCN5)C4)c23)n1 (stereo not drawn) [Example E154, 2-[4-(1,7-diazaspiro[4.4]nonan-7-yl)-1H-pyrrolo[2,3-b]pyridin-3-yl]thiazole]	0.37 nM	239 nM
c1cc(-c2c[nH]c3nccc(N4CCCC5(CNC5)C4)c23)cnn1 [Example E156, 4-(2,6-diazaspiro[3.5]nonan-6-yl)-3-pyridazin-4-yl-1H-pyrrolo[2,3-b]pyridine]	1.69 nM	57.4 nM
CN(C)C(=O)C1(N)CCN(c2ccnc3[nH]cc(-c4cncnc4)c23)CC1 [Example E198, 4-amino-N,N-dimethyl-1-(3-pyrimidin-5-yl-1H-pyrrolo[2,3-b]pyridin-4-yl)piperidine-4-carboxamide]	42.9 nM	–
N#Cc1c[nH]c2nccc(N3CCC[C@H]3C(=O)N3CCOCC3)c12 [Example E202, 4-[(2S)-2-(morpholine-4-carbonyl)pyrrolidin-1-yl]-1H-pyrrolo[2,3-b]pyridine-3-carbonitrile]	992 nM	–
N#Cc1c[nH]c2nccc(N3CCC[C@H]3C(=O)N3CCCCC3)c12 [Example E203, 4-[(2S)-2-(piperidine-1-carbonyl)pyrrolidin-1-yl]-1H-pyrrolo[2,3-b]pyridine-3-carbonitrile]	804 nM	–
